# Experimental data from US9586951B2 (FUJIFILM Corporation, priority 2013, dated 2017).
# Target: T1, ATM (Homo sapiens, UniProt Q13315)
# T1 construct: detecting phosphorylation of Chk2 in a human non-small cell lung cancer cell line NCI-H460 (ATCC company); host or cells: NCI-H460 human non-small cell lung cancer cells
# Test: ATM inhibition test (phosphorylation of Chk2 generated by ionizing radiation, AlphaScreen SureFire)
# Assay type: cell-based
# Settings: phosphorylated Chk2 in NCI-H460 cells, ionizing radiation 8Gy, 1 hour after test compound treatment; read-out: ATM inhibitory activity
# In short: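 Human NCI-H460 lung cancer cells were treated with compound for 1 h, then irradiated at 8Gy and incubated 1 h at 37° C. Phospho-Chk2 was quantified by AlphaScreen SureFire; inhibition % was normalised between irradiated untreated and non-irradiated untreated wells.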
# T1 sequence (Q13315 whole entry): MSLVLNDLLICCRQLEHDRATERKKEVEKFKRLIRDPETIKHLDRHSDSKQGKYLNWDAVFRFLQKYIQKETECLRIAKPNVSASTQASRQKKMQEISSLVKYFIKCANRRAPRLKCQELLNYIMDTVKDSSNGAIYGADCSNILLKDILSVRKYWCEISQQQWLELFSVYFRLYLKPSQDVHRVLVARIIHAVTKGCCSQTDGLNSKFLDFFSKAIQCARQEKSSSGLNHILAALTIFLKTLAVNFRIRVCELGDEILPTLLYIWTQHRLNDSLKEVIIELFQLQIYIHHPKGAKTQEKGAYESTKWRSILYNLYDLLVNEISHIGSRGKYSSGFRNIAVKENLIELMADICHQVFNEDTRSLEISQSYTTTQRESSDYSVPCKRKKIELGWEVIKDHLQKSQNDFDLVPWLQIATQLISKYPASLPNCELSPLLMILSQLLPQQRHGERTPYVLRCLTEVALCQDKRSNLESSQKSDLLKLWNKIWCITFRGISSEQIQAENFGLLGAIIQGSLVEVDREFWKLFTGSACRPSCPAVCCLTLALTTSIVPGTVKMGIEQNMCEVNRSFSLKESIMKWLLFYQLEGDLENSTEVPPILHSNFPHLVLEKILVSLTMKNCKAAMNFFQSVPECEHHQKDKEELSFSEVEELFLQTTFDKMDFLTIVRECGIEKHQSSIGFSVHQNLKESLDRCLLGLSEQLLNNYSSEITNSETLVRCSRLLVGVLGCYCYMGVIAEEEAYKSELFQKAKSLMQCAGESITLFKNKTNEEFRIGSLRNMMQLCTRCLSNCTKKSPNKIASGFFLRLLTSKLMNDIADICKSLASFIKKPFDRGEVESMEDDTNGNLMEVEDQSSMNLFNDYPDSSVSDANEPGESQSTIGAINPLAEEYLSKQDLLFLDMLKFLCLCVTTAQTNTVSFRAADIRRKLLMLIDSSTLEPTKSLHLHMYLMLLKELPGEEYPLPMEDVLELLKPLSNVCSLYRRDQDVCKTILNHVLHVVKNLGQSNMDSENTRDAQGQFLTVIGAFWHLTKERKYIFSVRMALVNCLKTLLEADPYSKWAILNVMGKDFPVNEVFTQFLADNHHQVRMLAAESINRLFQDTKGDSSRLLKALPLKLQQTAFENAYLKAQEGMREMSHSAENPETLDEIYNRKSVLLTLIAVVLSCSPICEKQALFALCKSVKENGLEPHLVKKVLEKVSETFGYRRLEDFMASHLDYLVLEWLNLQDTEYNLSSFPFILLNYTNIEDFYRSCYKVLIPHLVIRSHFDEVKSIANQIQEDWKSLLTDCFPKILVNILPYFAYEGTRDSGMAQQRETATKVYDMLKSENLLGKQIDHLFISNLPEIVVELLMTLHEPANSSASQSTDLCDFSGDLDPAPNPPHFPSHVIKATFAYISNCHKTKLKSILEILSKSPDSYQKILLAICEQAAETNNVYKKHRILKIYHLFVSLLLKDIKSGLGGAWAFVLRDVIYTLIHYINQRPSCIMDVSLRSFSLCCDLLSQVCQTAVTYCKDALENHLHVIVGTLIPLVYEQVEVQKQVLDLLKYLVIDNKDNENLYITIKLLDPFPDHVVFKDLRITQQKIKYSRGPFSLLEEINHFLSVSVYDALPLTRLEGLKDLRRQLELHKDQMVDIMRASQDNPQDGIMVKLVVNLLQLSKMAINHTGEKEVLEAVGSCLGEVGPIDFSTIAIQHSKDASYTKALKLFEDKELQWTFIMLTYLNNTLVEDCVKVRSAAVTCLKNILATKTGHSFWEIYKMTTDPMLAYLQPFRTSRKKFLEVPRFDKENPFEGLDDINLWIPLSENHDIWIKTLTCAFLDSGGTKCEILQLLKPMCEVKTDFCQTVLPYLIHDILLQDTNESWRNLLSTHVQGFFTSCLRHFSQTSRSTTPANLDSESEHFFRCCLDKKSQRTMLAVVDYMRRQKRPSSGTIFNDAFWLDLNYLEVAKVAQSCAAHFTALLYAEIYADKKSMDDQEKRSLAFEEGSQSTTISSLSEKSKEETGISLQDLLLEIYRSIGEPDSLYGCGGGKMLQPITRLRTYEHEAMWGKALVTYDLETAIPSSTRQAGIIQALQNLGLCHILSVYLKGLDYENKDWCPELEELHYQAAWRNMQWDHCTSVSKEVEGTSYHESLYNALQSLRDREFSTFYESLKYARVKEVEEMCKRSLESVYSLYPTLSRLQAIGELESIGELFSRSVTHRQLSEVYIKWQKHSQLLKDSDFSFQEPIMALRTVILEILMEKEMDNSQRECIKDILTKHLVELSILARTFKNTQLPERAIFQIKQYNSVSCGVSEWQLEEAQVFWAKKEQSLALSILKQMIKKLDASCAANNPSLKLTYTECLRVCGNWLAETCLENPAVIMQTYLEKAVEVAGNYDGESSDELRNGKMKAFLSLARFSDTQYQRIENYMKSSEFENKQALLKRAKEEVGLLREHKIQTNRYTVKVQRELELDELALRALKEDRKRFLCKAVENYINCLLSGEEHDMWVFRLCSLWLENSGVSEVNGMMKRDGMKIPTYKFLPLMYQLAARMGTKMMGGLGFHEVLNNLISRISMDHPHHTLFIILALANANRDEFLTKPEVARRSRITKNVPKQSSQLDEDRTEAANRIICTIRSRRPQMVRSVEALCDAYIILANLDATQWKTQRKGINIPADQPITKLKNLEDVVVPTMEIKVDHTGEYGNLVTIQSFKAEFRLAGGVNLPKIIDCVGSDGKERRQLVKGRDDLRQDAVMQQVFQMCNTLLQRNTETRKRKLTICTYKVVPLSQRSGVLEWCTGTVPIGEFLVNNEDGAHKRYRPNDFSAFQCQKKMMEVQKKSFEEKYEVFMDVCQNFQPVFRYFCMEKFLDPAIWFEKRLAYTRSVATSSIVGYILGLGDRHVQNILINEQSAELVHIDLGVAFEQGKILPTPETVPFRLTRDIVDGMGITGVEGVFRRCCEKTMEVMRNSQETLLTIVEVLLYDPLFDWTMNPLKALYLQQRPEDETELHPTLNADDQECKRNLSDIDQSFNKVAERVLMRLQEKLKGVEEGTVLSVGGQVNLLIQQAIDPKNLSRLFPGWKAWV
row,IC50 [nM],Compound
1,500 to 2000,"O=c1cc(N2CCOCC2)cc(-c2cccc3c2Oc2ccc(NC4CCN(CCc5ccc(Cl)cc5)CC4)cc2C3)[nH]1 [Example 2-30-6, 6-(7-((1-(4-Chlorophenethyl)piperidin-4-yl)amino)-9H-xanthen-4-yl)-4-morpholino pyridin-2 (1H)-one]"
2,100 to 500,"CC(C)Oc1ccc(CCN2CCC(Nc3ccc4c(c3)Cc3cccc(-c5cc(N6CCOCC6)cc(=O)[nH]5)c3O4)CC2)cc1 [Example 2-30-18, 6-(7-((1-(4-Isopropoxyphenethyl)piperidin-4-yl)amino)-9H-xanthen-4-yl)-4-morpholino pyridin-2(1H)-one]"
3,100 to 500,"Cc1cccc(C(CO)Nc2ccc3c(c2)Sc2cccc(-c4cc(N5CCOCC5)cc(=O)[nH]4)c2S3)n1 (single isomer, unassigned) [Example 1-12-140-1, 6-(7-((2-hydroxy-1-(6-methylpyridin-2-yl)ethyl)amino)thianthren-1-yl)-4-morpholinopyridin-2(1H)-one]"
4,100 to 500,"CC(C)(C)OC(=O)N1CCCC(Nc2ccc3c(c2)Cc2cccc(-c4cc(N5CCOCC5)cc(=O)[nH]4)c2O3)CC1 (stereo not drawn) [Example 2-3-11, tert-Butyl 4-((5-(4-morpholino-6-oxo-1,6-dihydropyridin-2-yl)-9H-xanthen-2-yl)amino) azepane-1-carboxylate]"
5,500 to 2000,"O=c1cc(N2CCOCC2)cc(-c2cccc3c2Oc2ccc(NC4CCN(CCCF)CC4)cc2C3)[nH]1 [Example 2-30-12, 6-(7-((1-(3-Fluoropropyl)piperidin-4-yl)amino)-9H-xanthen-4-yl)-4-morpholino pyridin-2(1H)-one]"
6,100 to 500,"COc1ccnc(C(C)Nc2ccc3c(c2)Cc2cccc(-c4cc(N5CCOCC5)cc(=O)[nH]4)c2O3)n1 (stereo not drawn) [Example 2-14-56, 6-(7-((1-(4-Methoxypyrimidin-2-yl)ethyl)amino)-9H-xanthen-4-yl)-4-morpholino pyridin-2(1H)-one]"
7,100 to 500,"COC[C@H](CN(C)C1CCCCC1)Nc1ccc2c(c1)Sc1cccc(-c3cc(N4CCOCC4)cc(=O)[nH]3)c1S2 [Example 1-46-12, (S)-6-(7-((1-(Cyclohexyl (methyl)amino)-3-methoxypropan-2-yl)amino)thianthren-1-yl)-4-morpholino pyridin-2 (1H)-one]"
8,500 to 2000,"O=c1cc(N2CCOCC2)cc(-c2cccc3c2Sc2ccc(NCc4ccno4)cc2C3)[nH]1 [Example 3-6, 6-(7-((isoxazol-5-ylmethyl)amino)-9H-thioxanthen-4-yl)-4-morpholinopyridin-2(1H)-one]"
9,100 to 500,"CCOCC(Nc1ccc2c(c1)Sc1cccc(-c3cc(N4CCOCC4)cc(=O)[nH]3)c1S2)c1ccc(C)cn1 (stereo not drawn) [Example 1-12-101, 6-(7-((2-Ethoxy-1-(5-methylpyridin-2-yl)ethyl)amino)thianthren-1-yl)-4-morpholino pyridin-2(1H)-one]"
10,< 100,"O=c1cc(N2CCOCC2)cc(-c2cccc3c2Sc2ccc(NC4CCNCC4)cc2S3)[nH]1 [Example 1-24-15, 4-Morpholino-6-(7-(piperidin-4-ylamino)thianthren-1-yl)pyridin-2(1H)-one]"
11,500 to 2000,"COc1cccnc1CNc1ccc2c(c1)Cc1ccnc(-c3cc(N4CCOCC4)cc(=O)[nH]3)c1O2 [Example 2-41-12, 6-(7-(((3-Methoxypyridin-2-yl)methyl)amino)-5H-chromeno [2,3-c]pyridin-1-yl)-4-morpholino pyridin-2(1H)-one]"
12,100 to 500,"CC(C)(O)CN1CCC(Nc2ccc3c(c2)Sc2cccc(-c4cc(N5CCOCC5)cc(=O)[nH]4)c2S3)CC1 [Example 1-29-1, 6-(7-((1-(2-hydroxy-2-methylpropyl)piperidin-4-yl)amino)thianthren-1-yl)-4-morpholinopyridin-2(1H)-one]"
13,100 to 500,"O=c1cc(N2CCOCC2)cc(-c2cccc3c2Sc2ccc(NCCCCN4CCOCC4)cc2S3)[nH]1 [Example 1-9-4, 4-Morpholino-6-(7-((4-morpholinobutyl)amino)thianthren-1-yl)pyridin-2(1H)-one]"
14,100 to 500,"O=c1cc(N2CCOCC2)cc(-c2cccc3c2Oc2ccc(NC4CCN(CC(O)c5ccccc5)CC4)cc2C3)[nH]1 (stereo not drawn) [Example 2-30-13, 6-(7-((1-(2-Hydroxy-2-phenylethyl)piperidin-4-yl)amino)-9H-xanthen-4-yl)-4-morpholino pyridin-2(1H)-one]"
15,100 to 500,"CCC(Nc1ccc2c(c1)Cc1cccc(-c3cc(N4CCOCC4)cc(=O)[nH]3)c1O2)c1cncc(OC)c1 (single isomer, unassigned) [Example 2-37, 6-(7-((1-(5-methoxypyridin-3-yl)propyl)amino)-9H-xanthen-4-yl)-4-morpholinopyridin-2(1H)-one]"
16,100 to 500,"COCCNCc1cccc(C(C)Nc2ccc3c(c2)Sc2cccc(-c4cc(N5CCOCC5)cc(=O)[nH]4)c2S3)n1 (stereo not drawn) [Example 1-20-9, 6-(7-((1-(6-(((2-Methoxyethyl)amino)methyl)pyridin-2-yl)ethyl)amino)thianthren-1-yl)-4-morpholino pyridin-2 (1H)-one]"

row,IC50 [nM],Compound
1,< 100,"O=c1cc(N2CCOCC2)cc(-c2cccc3c2Sc2ccc(NCc4cncc(-n5ccnc5)c4)cc2S3)[nH]1 [Example 1-12-20, 6-(7-(((5-(1H-Imidazol-1-yl)pyridin-3-yl)methyl)amino)thianthren-1-yl)-4-morpholino pyridin-2(1H)-one]"
2,100 to 500,"COc1cc(CNc2ccc3c(c2)Sc2cccc(-c4cc(N5CCOCC5)cc(=O)[nH]4)c2S3)cnc1OC [Example 1-12-7, 6-(7-(((5,6-Dimethoxypyridin-3-yl)methyl)amino)thianthren-1-yl)-4-morpholino pyridin-2(1H)-one]"
3,100 to 500,"Cc1cnc(C(COCCN(C)C)Nc2ccc3c(c2)Sc2cccc(-c4cc(N5CCOCC5)cc(=O)[nH]4)c2S3)nc1 (stereo not drawn) [Example 1-12-104, 6-(7-((2-(2-(Dimethylamino)ethoxy)-1-(5-methylpyrimidin-2-yl)ethyl)amino)thianthren-1-yl)-4-morpholino pyridin-2(1H)-one]"
4,500 to 2000,"CCC(CC)(Nc1ccc2c(c1)Sc1cccc(-c3cc(N4CCOCC4)cc(=O)[nH]3)c1S2)c1ccc(C)cn1 [Example 1-50-6, 6-(7-((3-(5-Methylpyridin-2-yl)pentan-3-yl)amino)thianthren-1-yl)-4-morpholino pyridin-2(1H)-one]"
5,100 to 500,"CC[C@H](N)C(C)Nc1ccc2c(c1)Sc1cccc(-c3cc(N4CCOCC4)cc(=O)[nH]3)c1S2 (stereo partly drawn) [Example 1-20-5, 6-(7-(((3S)-3-Aminopentan-2-yl)amino)thianthren-1-yl)-4-morpholino pyridin-2(1H)-one]"
6,100 to 500,"O=c1cc(N2CCOCC2)cc(-c2cccc3c2Sc2ccc(NCc4cccnc4)cc2S3)[nH]1 [Example 1-12-25, 4-Morpholino-6-(7-((pyridin-3-ylmethyl)amino)thianthren-1-yl)pyridin-2 (1H)-one]"
7,500 to 2000,"O=c1cc(N2CCOCC2)cc(-c2cccc3c2Oc2ccc(NC4CCCN(CCc5ccccc5)C4)cc2C3)[nH]1 (stereo not drawn) [Example 2-19-3, 4-Morpholino-6-(7-((1-phenethylpiperidin-3-yl)amino)-9H-xanthen-4-yl)pyridin-2(1H)-one]"
8,100 to 500,"Cc1cncc(C(CO)Nc2ccc3c(c2)Sc2cccc(-c4cc(N5CCOCC5)cc(=O)[nH]4)c2S3)c1 (stereo not drawn) [Example 1-12-66, 6-(7-((2-Hydroxy-1-(5-methylpyridin-3-yl)ethyl)amino)thianthren-1-yl)-4-morpholino pyridin-2(1H)-one]"
9,100 to 500,"CC(CCN1CCCC1)Nc1ccc2c(c1)Sc1cccc(-c3cc(N4CCOCC4)cc(=O)[nH]3)c1S2 (stereo not drawn) [Example 1-42-4, 4-Morpholino-6-(7-((4-(pyrrolidin-1-yl)butan-2-yl)amino)thianthren-1-yl) pyridin-2(1H)-one]"
10,100 to 500,"O=c1cc(N2CCOCC2)cc(-c2cccc3c2Sc2ccc(NC(CO)CN4CCCCC4)cc2S3)[nH]1 (stereo not drawn) [Example 1-37-4, 6-(7-((1-Hydroxy-3-(piperidin-1-yl)propan-2-yl)amino)thianthren-1-yl)-4-morpholino pyridin-2(1H)-one]"
11,100 to 500,"Cc1ccc(C(C[C@@H]2CCCN2C)Nc2ccc3c(c2)Sc2cccc(-c4cc(N5CCOCC5)cc(=O)[nH]4)c2S3)nc1 (single isomer, unassigned) [Example 12-2]"
12,100 to 500,"Cc1ccc(CN2CCC(Nc3ccc4c(c3)Cc3cccc(-c5cc(N6CCOCC6)cc(=O)[nH]5)c3O4)CC2)nc1 [Example 2-28-22, 6-(7-((1-((5-Methylpyridin-2-yl)methyl)piperidin-4-yl)amino)-9H-xanthen-4-yl)-4-morpholino pyridin-2(1H)-one]"
13,500 to 2000,"Cc1nccc(CNc2ccc3c(c2)Cc2cccc(-c4cc(N5CCOCC5)cc(=O)[nH]4)c2O3)n1 [Example 2-14-68, 6-(7-(((2-Methylpyrimidin-4-yl)methyl)amino)-9H-xanthen-4-yl)-4-morpholino pyridin-2(1H)-one]"
14,100 to 500,"O=c1cc(N2CCOCC2)cc(-c2cccc3c2Oc2ccc(NCc4cccnc4)cc2C3)[nH]1 [Example 2-3-1, 4-Morpholino-6-(7-((pyridin-3-ylmethyl)amino)-9H-xanthen-4-yl)pyridin-2(1H)-one]"
15,< 100,"Cn1cc(-c2cc(CNc3ccc4c(c3)Cc3cccc(-c5cc(N6CCOCC6)cc(=O)[nH]5)c3O4)ccn2)cn1 [Example 2-4, 6-(7-(((2-(1-methyl-1H-pyrazol-4-yl)pyridin-4-yl)methyl)amino)-9H-xanthen-4-yl)-4-morpholinopyridin-2(1H)-one]"
16,100 to 500,"Cc1cc(CNc2ccc3c(c2)Sc2cccc(-c4cc(N5CCOCC5)cc(=O)[nH]4)c2S3)ccn1 [Example 1-44-3, 6-(7-(((2-Methylpyridin-4-yl)methyl)amino)thianthren-1-yl)-4-morpholino pyridin-2(1H)-one]"

row,Compound,IC50 [nM]
1,4-Morpholino-6-(7-((1-(5- (morpholino methyl) pyrimidin-2-yl)ethyl) amino)thianthren-1- yl)pyridin-2(1H)-one [Example 1-12-95],100 to 500
